Laboratory results reported in patent US6780871B2, “Methods and compositions for treating addiction disorders” (Albany Medical College, priority 2001, dated 2004).

Key:
[1] = system: morphine self-administration; assay: intravenous morphine self-administration; format: in vivo, rat; settings: 18-methoxycoronaridine 1 mg/kg i.p., dextromethorphan 5 mg/kg s.c.
Protocol: Dextromethorphan hydrobromide (5 mg/kg; Sigma/RBI, St. Louis, Mo.) was dissolved in saline and injected subcutaneously 20 minutes before testing. Mecamylamine hydrochloride (1 mg/kg; Sigma/RBI, St. Louis, Mo.) was dissolved in physiological saline and injected intraperitoneally 30 minutes before testing. All rats received two injections. For rats that received a single drug, half of them also received the appropriate saline/vehicle injection corresponding to each of the other two drugs.
Naive female Long-Evans derived rats (250 g; Charles River, N.Y.) were maintained on a normal 12 h light cycle (lights on at 7:00 a.m., lights off at 7:00 p.m.). For all experiments the “Principles of Laboratory Animal Care” (NIH publication No. 85-23, revised 1985, which is hereby incorporated by reference) were followed.
The intravenous self-administration procedure described in Glick et al., “18-MC Reduces Methamphetamine and Nicotine Self-administration in Rats,” NeuroReport 11:2013-2015 (2000) (“Glick I”), which is hereby incorporated by reference, was employed. Briefly, responses on either of two levers (mounted 15 cm apart on the front wall of each operant test cage) were recorded on an IBM compatible computer with a Med Associates, Inc. interface. The intravenous self-administration system consisted of polyethylene-silicone cannulas constructed according to the design of Weeks, “Long-term Intravenous Infusion,” pp. 155-168 in Myers (ed.), Methods in Psychobiology, Vol. 2, New York: Academic Press (1972) (“Weeks”), which is hereby incorporated by reference; Instech harnesses and swivels; and Harvard Apparatus infusion pumps (#55-2222). Shaping of the bar-press response was initially accomplished by training rats to bar-press for water. Cannulas were then implanted in the external jugular vein according to procedures described in Weeks, which is hereby incorporated by reference. Self-administration testing began with a 16-h nocturnal session followed by daily 1-h sessions, 5 days (Monday-Friday) a week. A lever-press response produced a 10 μl infusion of drug solution (0.01 mg of morphine sulfate) in about 0.2 s or a 50 μl infusion of drug solution (0.025 mg of methamphetamine sulfate) in about 1 s. Since all rats generally weighed 250±20 g, each response delivered approximately 0.04 mg/kg of morphine or 0.1 mg/kg of methamphetamine. Experiments to assess the effects of experimental treatments were begun when baseline self-administration rates stabilized (≦10% variation from one day to the next across 5 days), usually after 2 weeks of testing.
Each data point represents the mean (±S.E.M.) percent of baseline of 6-8 rats. Significant differences between baseline and treatment are indicated by an asterisk (paired t-test, P<0.01-0.001).
Each data point represents the mean (±S.E.M.) percent of baseline of 5-8 rats. Significant differences between baseline and treatment are indicated by an asterisk (paired t-test), P<0.05-0.01).

α3β4 nACh receptors = biological target: T1, α3β4 nACh receptors (Rattus norvegicus, UniProt P04757+P12392); assay: whole-cell patch-clamp of transfected HEK293 cells, ganglionic α3β4 nACh receptors, 1 mM ACh; format: cell-based
T1 construct: expressed in transfected cells; host or cells: HEK293 (ATCC CRL1573), transient transfection
T1 sequence (P04757 26-499): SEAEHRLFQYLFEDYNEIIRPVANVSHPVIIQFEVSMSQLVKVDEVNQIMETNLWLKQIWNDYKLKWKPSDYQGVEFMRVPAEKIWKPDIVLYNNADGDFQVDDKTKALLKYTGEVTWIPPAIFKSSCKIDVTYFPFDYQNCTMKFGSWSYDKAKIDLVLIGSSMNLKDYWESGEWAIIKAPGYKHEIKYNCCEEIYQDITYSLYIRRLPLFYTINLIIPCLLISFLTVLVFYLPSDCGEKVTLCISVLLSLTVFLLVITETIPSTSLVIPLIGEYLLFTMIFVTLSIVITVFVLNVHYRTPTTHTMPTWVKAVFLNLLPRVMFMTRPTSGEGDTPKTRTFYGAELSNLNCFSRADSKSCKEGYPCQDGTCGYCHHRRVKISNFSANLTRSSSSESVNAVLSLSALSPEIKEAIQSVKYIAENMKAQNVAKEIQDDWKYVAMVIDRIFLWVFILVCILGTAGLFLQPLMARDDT
T1 sequence (P12392 21-495): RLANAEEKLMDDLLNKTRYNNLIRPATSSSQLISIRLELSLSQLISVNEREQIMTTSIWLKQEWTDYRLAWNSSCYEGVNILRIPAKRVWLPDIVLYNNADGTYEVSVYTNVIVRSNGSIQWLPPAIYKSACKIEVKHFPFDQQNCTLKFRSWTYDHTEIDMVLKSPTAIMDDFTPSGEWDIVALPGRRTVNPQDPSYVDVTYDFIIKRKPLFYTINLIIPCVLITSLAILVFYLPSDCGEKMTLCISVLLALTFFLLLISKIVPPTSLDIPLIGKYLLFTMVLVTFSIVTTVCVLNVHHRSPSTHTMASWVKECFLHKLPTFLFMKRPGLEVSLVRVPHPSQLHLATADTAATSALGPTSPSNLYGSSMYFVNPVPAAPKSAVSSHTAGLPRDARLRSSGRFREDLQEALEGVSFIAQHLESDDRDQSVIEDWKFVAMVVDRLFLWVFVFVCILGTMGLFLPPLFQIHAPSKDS
Protocol: Human embryonic kidney 293 (HEK293) fibroblasts (ATCC CRL1573) were cultured in minimal essential medium supplemented with 10% fetal bovine serum and 2 mM glutamine (Life Technologies, Rockville, Md.). Cells were plated on poly-D-lysine-coated 35 mm nunc dishes, transfected by the LipofectaminePLUS method (Life Technologies), and examined functionally between 18-48 h post transfection. The following receptor subunit cDNAs were used: nAChR-α3 (nicotinic acetylcholine receptor-α3; accession no. L31621), nAChR-α4 (accession no. L31620), nAChR-β2 (accession no. L31622), nAChR-β4 (accession no. U42976), 5-HT3R-A (5-HT3A receptor; accession no. M74425), NR1 (N-methyl-D-aspartate receptor 1; accession no. X63255), NR2A (accession no. X91561), and NR2B (accession no. M91562). The nAchR and NR clones were rat; the 5-HT3R-A clone was mouse. Co-transfection of enhanced green fluorescent protein (“EGFP”) (10% of total cDNA) provided a marker to identify transfected cells. Transfected cells were selected for EGFP expression and examined by voltage-clamp recording in the whole-cell configuration using an Axopatch 200B patch-clamp amplifier (Axon Instruments, Foster City, Calif.). Thin-walled borosilicate glass microelectrodes (TW150F, World Precision Instruments, Sarasota, Fla.) had resistances of 3-5 MΩ when filled with an internal solution containing (in mM): 135 CsCl, 10 CsF, 10 HEPES (N-[2-hydroxyethyl]piperazine-N′-[2-ethanesulfonic acid]), 5 EGTA (ethylene glycol-bis[β-aminoethyl ether]-N,N,N′,N′-tetraacetic acid), 1 MgCl2, 0.5 CaCl2, pH 7.2. Whole-cell capacitance and series resistance were recorded and adequately compensated using the available circuitry of the amplifier. Current responses were filtered at 1 kHz with an 8-pole Bessel filter (Cygnus Technologies, Delaware Water Gap, Pa.), digitized at 3 kHz, and stored on a Macintosh PowerPC-G3 computer using an ITC-16 interface (Instrutech, Great Neck, N.Y.) under control of the data acquisition and analysis program Synapse (Synergy Research, Gaithersburg, Md.). […] Rapid switching between inputs was achieved using a set of upstream solenoid valves (Lee Co., Westbrook, Conn.) under computer control; the solution exchange rate was ˜5 ms as measured from liquid junction currents.
Transfected HEK293 cells expressing various receptor subunit cDNAs were examined by whole-cell patch-clamp recording with fast perfusion of agonist and drug solutions. […] In FIG. 1A, open bars depict the timing of ACh application; filled bars depict the timing of co-application of 20 μM IBO or 20 μM 18MC; and inhibition was measured relative to control at the end of the drug application (indicated by arrows). […]

SMILES: COCC[C@H]1CC2CN3CCc4c([nH]c5ccccc45)[C@](C(=O)OC)(C2)[C@H]13 [18-methoxycoronaridine]
- effect on morphine self-administration (percent of baseline) ([1]; Example 5, FIG. 5: mecamylamine 1 mg/kg i.p., 6-8 rats): none of the drugs administered alone, significantly decreased
- effect on morphine self-administration (percent of baseline) ([1]; Example 6, FIG. 8: mecamylamine 1 mg/kg i.p., bupropion 5 mg/kg i.p., 5-8 rats): none of the drugs administered alone, significantly decreased
- response to drug applied alone (agonist activity) (α3β4 nACh receptors; 20 μM drug alone, -70 mV): did not produce any response
- inhibition of ACh-evoked responses on co-application (α3β4 nACh receptors; 20 μM drug with 1 mM ACh, N=15, FIG. 1A): nearly abolished
